Test results as given in ChEMBL document CHEMBL6083286, “Discovery of ERD-12310A as an Exceptionally Potent and Orally Efficacious PROTAC Degrader of Estrogen Receptor α (ERα)” (J Med Chem, 2024).
Activity calls are given as the source filed them. The rule behind the calls is not given here.

How the values were obtained:
[1] = target: T1, Protein cereblon/Estrogen receptor (Homo sapiens, UniProt P03372+Q96SW2); test: PROTAC activity at CRBN/wild type ERalpha in human T47D cells assessed as reduction in ERalpha protein level at 10 to 100 nM measured at 7 hrs by Western blot analysis; assay type: cell-based; details: dose 10-100 nM
Target sequence in this assay (P03372 whole entry, looked up): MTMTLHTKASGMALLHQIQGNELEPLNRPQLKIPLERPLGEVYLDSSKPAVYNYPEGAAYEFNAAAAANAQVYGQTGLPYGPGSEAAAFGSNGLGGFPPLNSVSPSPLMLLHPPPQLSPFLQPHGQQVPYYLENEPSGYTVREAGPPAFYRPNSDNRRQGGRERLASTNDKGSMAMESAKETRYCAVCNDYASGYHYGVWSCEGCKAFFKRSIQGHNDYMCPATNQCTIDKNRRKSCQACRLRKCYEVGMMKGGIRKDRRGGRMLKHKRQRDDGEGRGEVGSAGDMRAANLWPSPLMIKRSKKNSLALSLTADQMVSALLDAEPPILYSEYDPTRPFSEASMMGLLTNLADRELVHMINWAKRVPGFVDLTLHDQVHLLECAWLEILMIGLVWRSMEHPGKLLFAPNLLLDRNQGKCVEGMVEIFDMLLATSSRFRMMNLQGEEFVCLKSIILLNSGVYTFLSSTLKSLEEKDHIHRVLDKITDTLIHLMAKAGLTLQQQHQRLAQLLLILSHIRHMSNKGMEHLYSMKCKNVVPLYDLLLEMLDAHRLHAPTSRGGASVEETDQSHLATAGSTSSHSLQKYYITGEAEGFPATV
Target sequence in this assay (Q96SW2 whole entry, looked up): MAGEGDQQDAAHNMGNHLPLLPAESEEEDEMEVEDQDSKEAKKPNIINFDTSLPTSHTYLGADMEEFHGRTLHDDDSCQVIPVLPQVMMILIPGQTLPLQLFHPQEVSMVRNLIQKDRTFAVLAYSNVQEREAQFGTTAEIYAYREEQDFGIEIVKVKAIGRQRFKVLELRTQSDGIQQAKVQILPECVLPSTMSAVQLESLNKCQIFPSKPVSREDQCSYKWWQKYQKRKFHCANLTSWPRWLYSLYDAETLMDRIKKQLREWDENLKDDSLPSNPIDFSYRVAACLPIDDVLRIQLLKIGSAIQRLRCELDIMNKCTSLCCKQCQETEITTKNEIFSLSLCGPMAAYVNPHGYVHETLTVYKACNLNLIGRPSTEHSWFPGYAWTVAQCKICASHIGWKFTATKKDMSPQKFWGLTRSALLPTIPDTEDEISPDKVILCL

[2] = tested on: T47D; test: PROTAC activity at CRBN/ ERalpha Y537S mutant in human T47D cells assessed as reduction in ERalpha protein level at 10 to 100 nM measured at 7 hrs by Western blot analysis; assay type: cell-based; details: dose 10-100 nM
[3] = tested on: T47D; test: PROTAC activity at CRBN/ ERalpha D538G mutant in human T47D cells assessed as reduction in ERalpha protein level at 10 to 100 nM measured at 7 hrs by Western blot analysis; assay type: cell-based; details: dose 10-100 nM
[4] = tested on: MCF7; test: Antiproliferative activity against human MCF7 cells assessed as cell growth inhibition incubated for 4 days by crystal violet staining based assay; assay type: functional; details: time 4.0 day
[5] = Metabolic stability mouse liver microsome assessed as half life; assay type: ADME; details: microsomes
[6] = Metabolic stability rat liver microsome assessed as half life; assay type: ADME; details: microsomes
[7] = target: T1, Protein cereblon/Estrogen receptor; test: PROTAC activity at CRBN/ERalpha in human MCF7 cells assessed as reduction in ERalpha protein level measured after 12 hrs by Western blot analysis; assay type: cell-based
Target sequence in this assay (P03372 whole entry): as the sequence (P03372 whole entry, looked up) above
Target sequence in this assay (Q96SW2 whole entry): as the sequence (Q96SW2 whole entry, looked up) above

[8] = target: T1, Protein cereblon/Estrogen receptor; test: PROTAC activity at CRBN/ERalpha in human MCF7 cells assessed as reduction in ERalpha protein level measured after 12 hrs by Western blot analysis relative to control; assay type: cell-based
Target sequence in this assay (P03372 whole entry, looked up): as the sequence (P03372 whole entry, looked up) above
Target sequence in this assay (Q96SW2 whole entry, looked up): as the sequence (Q96SW2 whole entry, looked up) above

[9] = Drug concentration in female Sprague-Dawley rat plasma at 3 mg/kg, po measured at 1 hr by LC-MS analysis; assay type: ADME, organism-based
[10] = Drug concentration in female Sprague-Dawley rat plasma at 3 mg/kg, po measured at 3 hrs by LC-MS analysis; assay type: ADME, organism-based
[11] = Drug concentration in female Sprague-Dawley rat plasma at 3 mg/kg, po measured at 6 hrs by LC-MS analysis; assay type: ADME, organism-based
[12] = Drug concentration in female Sprague-Dawley rat plasma at 3 mg/kg, po measured at 24 hrs by LC-MS analysis; assay type: ADME, organism-based
[13] = Metabolic stability human liver microsome assessed as half life; assay type: ADME; details: microsomes
[14] = target: T1, Protein cereblon/Estrogen receptor; test: PROTAC activity at CRBN/ERalpha in human MCF7 cells assessed as effect on GSPT1 level at 100 nM measured for 5 hrs by Western blot analysis; assay type: cell-based
Target sequence in this assay (P03372 whole entry, looked up): as the sequence (P03372 whole entry, looked up) above
Target sequence in this assay (Q96SW2 whole entry, looked up): as the sequence (Q96SW2 whole entry, looked up) above

[15] = target: Protein cereblon (Homo sapiens, UniProt Q96SW2); test: Binding affinity to wild type GST-tagged human CRBN by HTRF assay
Sequence of Protein cereblon (Q96SW2 whole entry): as the sequence (Q96SW2 whole entry, looked up) above

[16] = Stability in mouse plasma assessed as half life; assay type: ADME, cell-free
[17] = Stability in rat plasma assessed as half life; assay type: ADME, cell-free
[18] = Stability in human plasma assessed as half life; assay type: ADME, cell-free

With `CN(C)C[C@@H]1CCC2(CCN(c3ccc([C@@H]4c5ccc(O)cc5CC[C@@H]4c4ccccc4)cc3)CC2)OC1` the Activity [1] was “inactive”, the Activity [2] was “inactive” and the Activity [3] was “inactive”. For the same molecule, the Activity [4] was “Active”.
In the case of `O=C1CC[C@H](N2Cc3c(ccc4c3OCC43CCN(CC(=O)N4CC5(CCN(c6ccc([C@@H]7c8ccc(O)cc8CC[C@@H]7c7ccccc7)cc6)CC5)C4)CC3)C2=O)C(=O)N1`, the t1/2 [5] is reported as 0.583 h, the t1/2 [6] is reported as 0.817 h and the DC50 [7] is reported as 0.0341 nM. The Emax [8] was 102%, the concentration at 1 h [9] was 9 ng/mL and the concentration at 3 h [10] was less than 5 ng/mL. The concentration at 6 h [11] was less than 5 ng/mL, the concentration at 24 h [12] was less than 5 ng/mL and the t1/2 [13] was greater than 1 h.
For `O=C1CCC(N2Cc3c(CCCCCNC(=O)[C@@H]4NC5(CCCCC5)[C@@]5(C(=O)Nc6cc(Cl)ccc65)[C@H]4c4cccc(Cl)c4F)cccc3C2=O)C(=O)N1` (some centres not stated), the Activity [14] was “Active”.
Molecule `O=C1CC[C@H](N2Cc3c(ccc4c3OCC43CCNCC3)C2=O)C(=O)N1` has an IC50 [15] of 230 nM, a t1/2 [5] greater than 1 h and a t1/2 [6] greater than 1 h. The t1/2 [16] was greater than 1 h, the t1/2 [17] was greater than 1 h and the t1/2 [18] was greater than 1 h.
Work on `O=C1CC[C@H](N2Cc3c(ccc4c3OCC43CCN(C(=O)CN4CCC5(CC4)CN(c4ccc([C@@H]6c7ccc(O)cc7CC[C@@H]6c6ccccc6)cc4)C5)CC3)C2=O)C(=O)N1` yielded a DC50 [7] of 0.034 nM, an Emax [8] of 96% and a concentration at 1 h [9] of 16 ng/mL. For the same molecule, the concentration at 3 h [10] was 13 ng/mL, the concentration at 6 h [11] was 9 ng/mL and the concentration at 24 h [12] was less than 5 ng/mL.
For `CN1C(=O)CC[C@H](N2Cc3c(ccc4c3OCC43CCN(C[C@@H]4CCC5(CCN(c6ccc([C@@H]7c8ccc(O)cc8CC[C@@H]7c7ccccc7)cc6)CC5)OC4)CC3)C2=O)C1=O`, the Activity [15] was “inactive”, the Activity [1] was “inactive” and the Activity [2] was “inactive”. For the same molecule, the Activity [3] was “inactive” and the Activity [4] was “Active”.
`O=C1CC[C@H](N2Cc3c(ccc4c3OCC43CCN(CC(=O)N4CCC5(CC4)CN(c4ccc([C@@H]6c7ccc(O)cc7CC[C@@H]6c6ccccc6)cc4)C5)CC3)C2=O)C(=O)N1` gave a DC50 [7] of 0.253 nM, an Emax [8] of 102% and a concentration at 1 h [9] of 32 ng/mL. It also gave a concentration at 3 h [10] of 26 ng/mL, a concentration at 6 h [11] of 17 ng/mL and a concentration at 24 h [12] of less than 5 ng/mL.
